Experimental data: PubChem BioAssay AID1963841 (Molecular Pharmacology Branch, DTP, NCI, 2024)

System: 439559-082-T-J2-PDC spheroid viability
Assay: Anticancer human tumor 439559-082-T-J2-PDC patient-derived colon adenocarcinoma cell line growth inhibition [POLQ]
Details: spheroids with HUVEC and MSC; for IC50: curve of first compound; for viability, T/C: stronger effect = lower value
In short: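 Patient-derived tumour cells were co-cultured with HUVEC and mesenchymal stem cells as multicellular spheroids at 37 °C. They were treated with POLQ inhibitors (novobiocin, ART-558, RP6685) alone or combined with other agents. Top concentrations were at or near clinical Cmax (otherwise 10 microM; SN-38 at 1 microM), decreasing in half-log steps.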
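Note: spheroids exposed to compounds for seven days before readout.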
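Throughout, for viability, T/C: 100% = DMSO vehicle control viability.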

SMILES: CNCc1ccc(-c2[nH]c3cc(F)cc4c3c2CCNC4=O)cc1 + COC1C(OC(N)=O)C(O)C(Oc2ccc3c(O)c(NC(=O)c4ccc(O)c(CC=C(C)C)c4)c(=O)oc3c2C)OC1(C)C
- IC50 (second compound 0.0316 µM): > 10 µM
- IC50 (second compound 0.1 µM): > 10 µM
- IC50 (second compound 0.316 µM): > 10 µM
- IC50 (second compound 1 µM): > 10 µM
- IC50 (second compound 3.16 µM): > 10 µM
- IC50 (second compound 10 µM): > 10 µM
- viability, T/C (second compound 0.0316 µM, first compound 0.0316 µM): 103%
- viability, T/C (second compound 0.0316 µM, first compound 0.1 µM): 98.7%
- viability, T/C (second compound 0.0316 µM, first compound 0.316 µM): 99.4%
- viability, T/C (second compound 0.0316 µM, first compound 1 µM): 101%
- viability, T/C (second compound 0.0316 µM, first compound 3.16 µM): 106%
- viability, T/C (second compound 0.0316 µM, first compound 10 µM): 102%
- viability, T/C (second compound 0.1 µM, first compound 0.0316 µM): 101%
- viability, T/C (second compound 0.1 µM, first compound 0.1 µM): 107%
- viability, T/C (second compound 0.1 µM, first compound 0.316 µM): 91.7%
- viability, T/C (second compound 0.1 µM, first compound 1 µM): 99.7%
- viability, T/C (second compound 0.1 µM, first compound 3.16 µM): 105%
- viability, T/C (second compound 0.1 µM, first compound 10 µM): 108%
- viability, T/C (second compound 0.316 µM, first compound 0.0316 µM): 104%
- viability, T/C (second compound 0.316 µM, first compound 0.1 µM): 96%
- viability, T/C (second compound 0.316 µM, first compound 0.316 µM): 98.3%
- viability, T/C (second compound 0.316 µM, first compound 1 µM): 108%
- viability, T/C (second compound 0.316 µM, first compound 3.16 µM): 110%
- viability, T/C (second compound 0.316 µM, first compound 10 µM): 105%
- viability, T/C (second compound 1 µM, first compound 0.0316 µM): 108%
- viability, T/C (second compound 1 µM, first compound 0.1 µM): 103%
- viability, T/C (second compound 1 µM, first compound 0.316 µM): 106%
- viability, T/C (second compound 1 µM, first compound 1 µM): 98.1%
- viability, T/C (second compound 1 µM, first compound 3.16 µM): 111%
- viability, T/C (second compound 1 µM, first compound 10 µM): 108%
- viability, T/C (second compound 3.16 µM, first compound 0.0316 µM): 108%
- viability, T/C (second compound 3.16 µM, first compound 0.1 µM): 103%
- viability, T/C (second compound 3.16 µM, first compound 0.316 µM): 97.4%
- viability, T/C (second compound 3.16 µM, first compound 1 µM): 95.8%
- viability, T/C (second compound 3.16 µM, first compound 3.16 µM): 114%
- viability, T/C (second compound 3.16 µM, first compound 10 µM): 105%
- viability, T/C (second compound 10 µM, first compound 0.0316 µM): 99.5%
- viability, T/C (second compound 10 µM, first compound 0.1 µM): 93.7%
- viability, T/C (second compound 10 µM, first compound 0.316 µM): 95.4%
- viability, T/C (second compound 10 µM, first compound 1 µM): 104%
- viability, T/C (second compound 10 µM, first compound 3.16 µM): 115%
- viability, T/C (second compound 10 µM, first compound 10 µM): 98.4%
